For two compounds, Geruchsschwellenwert and Geruch results are on record in patent publication EP0294746A1, “Bicyclic nitro compounds” (L. GIVAUDAN & CIE Société Anonyme, priority 1987, dated 1988).

Test [1] is described as follows: Odour threshold and odour value determination. As to conditions: definition per Huber, Seifen-Oele-Fette-Wachse 110 (1984) 448-451. The procedure: Die Verbindungen der Formel I eignen sich aufgrund ihrer natürlichen Geruchsnoten insbesondere zur Modifizierung von bekannten Kompositionen. Hervorgehoben werden soll insbesondere ihre ausserordentliche Geruchsstärke: Der Geruchsschwellenwert beträgt 0,29 bzw. 0,57 ng/l, der Geruchswert 2983 bzw. 2139. Bezüglich Definition von Geruchswert und Geruchsschwellenwert siehe z.B. Ulrich A. Huber, Seifen - -Oele - Fette - Wachse 110, Nr. 15 (1984) 448-451.

Test [2] can be described thus: Odour description (olfactory evaluation). As to conditions: odour note in words.

Each structure is given as a SMILES string.

In the case of `CCc1cc2c(cc1[N+](=O)[O-])C(C)(C)CCC2(C)C` [Beispiel 1, 6-Nitro-7-äthyl-1,1,4,4-tetramethyl-1,2,3,4-tetrahydronaphthalin], the Geruchsschwellenwert in test [1] was 0,57 ng/l. In addition, the Geruch entry in test [2] was “Moschus-artig, süss, pudrig”.

On to `CCc1cc2c(cc1[N+](=O)[O-])C(C)(C)C(C)C2(C)C` (stereo not shown) [Beispiel 2, 5-Nitro-6-äthyl-1,1,2,3,3-pentamethylindan], for which, in test [1], the Geruchsschwellenwert is recorded as 0,29 ng/l. Besides, the Geruch result in test [2] is on record as “moschus-artig”.
